Source: patent US10588316B2 (priority 2015, dated 2020)

How the values were obtained:
[1] = test system: Fusarium asiaticum; experiment: microbe, parasite or virus in culture; type: cell-based; details: F.a sensitive strains
[2] = test system: Fusarium graminearum; experiment: microbe, parasite or virus in culture; type: cell-based; details: F.g sensitive strains

CCOC(=O)C(C#N)=C(N)c1ccccc1 [phenamacril]
Median Effective Concentration (EC50) for Growth Inhibition [1]: 0.165 µg/mL | Median Effective Concentration (EC50) for Growth Inhibition [2]: 0.165 µg/mL
